According to PubChem BioAssay (NCI):
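Results reflect a 48-hour exposure of cells in 96-well plates to compound at five concentrations. GI50 is the concentration that inhibits growth by half. TGI: total growth inhibition.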

Assays:
Assay in all cases: DTP human tumour cell line panel, 48 h
786-0 renal = test system: 786-0 renal
A498 renal = test system: A498 renal
A549 NSCLC = test system: A549 NSCLC
ACHN renal = test system: ACHN renal
BT-549 breast = test system: BT-549 breast
CAKI-1 renal = test system: CAKI-1 renal
CCRF-CEM leukemia = test system: CCRF-CEM leukemia
COLO 205 colon = test system: COLO 205 colon
DU-145 prostate = test system: DU-145 prostate
EKVX NSCLC = test system: EKVX NSCLC
HCC-2998 colon = test system: HCC-2998 colon
HCT-116 colon = test system: HCT-116 colon
HCT-15 colon = test system: HCT-15 colon
HL-60(TB) leukemia = test system: HL-60(TB) leukemia
HOP-62 NSCLC = test system: HOP-62 NSCLC
HOP-92 NSCLC = test system: HOP-92 NSCLC
HS 578T breast = test system: HS 578T breast
HT29 colon = test system: HT29 colon
IGROV1 ovarian = test system: IGROV1 ovarian
K-562 leukemia = test system: K-562 leukemia
KM12 colon = test system: KM12 colon
LOX IMVI melanoma = test system: LOX IMVI melanoma
M14 melanoma = test system: M14 melanoma
MALME-3M melanoma = test system: MALME-3M melanoma
MCF7 breast = test system: MCF7 breast
MDA-MB-231 breast = test system: MDA-MB-231 breast
MDA-MB-435 = test system: MDA-MB-435
MDA-MB-468 breast = test system: MDA-MB-468 breast
MOLT-4 leukemia = test system: MOLT-4 leukemia
NCI-H226 lung = test system: NCI-H226 lung
NCI-H23 lung = test system: NCI-H23 lung
NCI-H460 lung = test system: NCI-H460 lung
NCI-H522 lung = test system: NCI-H522 lung
NCI/ADR-RES ovarian = test system: NCI/ADR-RES ovarian
OVCAR-3 ovarian = test system: OVCAR-3 ovarian
OVCAR-4 ovarian = test system: OVCAR-4 ovarian
OVCAR-5 ovarian = test system: OVCAR-5 ovarian
OVCAR-8 ovarian = test system: OVCAR-8 ovarian
PC-3 prostate = test system: PC-3 prostate
RPMI-8226 leukemia = test system: RPMI-8226 leukemia
RXF 393 renal = test system: RXF 393 renal
SF-268 CNS = test system: SF-268 CNS
SF-295 CNS = test system: SF-295 CNS
SF-539 CNS = test system: SF-539 CNS
SK-MEL-2 melanoma = test system: SK-MEL-2 melanoma
SK-MEL-28 melanoma = test system: SK-MEL-28 melanoma
SK-MEL-5 melanoma = test system: SK-MEL-5 melanoma
SK-OV-3 ovarian = test system: SK-OV-3 ovarian
SN12C renal = test system: SN12C renal
SNB-19 CNS = test system: SNB-19 CNS
SNB-75 CNS = test system: SNB-75 CNS
SR leukemia = test system: SR leukemia
SW-620 colon = test system: SW-620 colon
T-47D breast = test system: T-47D breast
TK-10 renal = test system: TK-10 renal
U251 CNS = test system: U251 CNS
UACC-257 melanoma = test system: UACC-257 melanoma
UACC-62 melanoma = test system: UACC-62 melanoma
UO-31 renal = test system: UO-31 renal

CN1CCN(c2ccc(Nc3nc(NCCCNC(=O)C4CCCCC4)c4sccc4n3)cc2)CC1
GI50 (786-0 renal): 10.8 µM
TGI (786-0 renal): 26.4 µM
GI50 (A498 renal): 22 µM
TGI (A498 renal): 37.7 µM
GI50 (A549 NSCLC): 20.7 µM
TGI (A549 NSCLC): 80.8 µM
GI50 (ACHN renal): 15.6 µM
TGI (ACHN renal): 35.1 µM
GI50 (BT-549 breast): 13.3 µM
TGI (BT-549 breast): 27.3 µM
GI50 (CAKI-1 renal): 14.5 µM
TGI (CAKI-1 renal): 30.5 µM
GI50 (CCRF-CEM leukemia): 3.77 µM
TGI (CCRF-CEM leukemia): 37.6 µM
GI50 (COLO 205 colon): 17.7 µM
TGI (COLO 205 colon): 38.2 µM
GI50 (DU-145 prostate): 14.9 µM
TGI (DU-145 prostate): 30.5 µM
GI50 (EKVX NSCLC): 15.8 µM
TGI (EKVX NSCLC): 33.9 µM
GI50 (HCC-2998 colon): 13.8 µM
TGI (HCC-2998 colon): 26.9 µM
GI50 (HCT-116 colon): 3.98 µM
TGI (HCT-116 colon): 18.5 µM
GI50 (HCT-15 colon): 5.77 µM
TGI (HCT-15 colon): 25.6 µM
GI50 (HL-60(TB) leukemia): 4.55 µM
TGI (HL-60(TB) leukemia): 23.3 µM
GI50 (HOP-62 NSCLC): 18.2 µM
TGI (HOP-62 NSCLC): 36.3 µM
GI50 (HOP-92 NSCLC): 10.6 µM
TGI (HOP-92 NSCLC): 34.3 µM
GI50 (HS 578T breast): 12.8 µM
TGI (HS 578T breast): 36.2 µM
GI50 (HT29 colon): 4.28 µM
TGI (HT29 colon): 17 µM
GI50 (IGROV1 ovarian): 14 µM
TGI (IGROV1 ovarian): 30.8 µM
GI50 (K-562 leukemia): 2.72 µM
TGI (K-562 leukemia): 47 µM
GI50 (KM12 colon): 19.4 µM
TGI (KM12 colon): 44.9 µM
GI50 (LOX IMVI melanoma): 10.7 µM
TGI (LOX IMVI melanoma): 23.1 µM
GI50 (M14 melanoma): 4.23 µM
TGI (M14 melanoma): 16 µM
GI50 (MALME-3M melanoma): 7.31 µM
TGI (MALME-3M melanoma): 19.8 µM
GI50 (MCF7 breast): 10 µM
TGI (MCF7 breast): 24 µM
GI50 (MDA-MB-231 breast): 13.2 µM
TGI (MDA-MB-231 breast): 30.8 µM
GI50 (MDA-MB-435): 15.6 µM
TGI (MDA-MB-435): 30.8 µM
GI50 (MDA-MB-468 breast): 2.96 µM
TGI (MDA-MB-468 breast): 17.2 µM
GI50 (MOLT-4 leukemia): 3.19 µM
TGI (MOLT-4 leukemia): 20.8 µM
GI50 (NCI-H226 lung): 12.6 µM
TGI (NCI-H226 lung): 26.3 µM
GI50 (NCI-H23 lung): 14.1 µM
TGI (NCI-H23 lung): 29.1 µM
GI50 (NCI-H460 lung): 14.6 µM
TGI (NCI-H460 lung): 30.8 µM
GI50 (NCI-H522 lung): 13 µM
TGI (NCI-H522 lung): 27 µM
GI50 (NCI/ADR-RES ovarian): 21.1 µM
TGI (NCI/ADR-RES ovarian): 54.5 µM
GI50 (OVCAR-3 ovarian): 16.2 µM
TGI (OVCAR-3 ovarian): 33.5 µM
GI50 (OVCAR-4 ovarian): 15.7 µM
TGI (OVCAR-4 ovarian): 57.7 µM
GI50 (OVCAR-5 ovarian): 16.1 µM
TGI (OVCAR-5 ovarian): 34.6 µM
GI50 (OVCAR-8 ovarian): 16 µM
TGI (OVCAR-8 ovarian): 36.7 µM
GI50 (PC-3 prostate): 12.4 µM
TGI (PC-3 prostate): 42.2 µM
GI50 (RPMI-8226 leukemia): 3.92 µM
TGI (RPMI-8226 leukemia): 19.9 µM
GI50 (RXF 393 renal): 5.49 µM
TGI (RXF 393 renal): 20 µM
GI50 (SF-268 CNS): 10.4 µM
TGI (SF-268 CNS): 40.7 µM
GI50 (SF-295 CNS): 12.9 µM
TGI (SF-295 CNS): 26.3 µM
GI50 (SF-539 CNS): 3.15 µM
TGI (SF-539 CNS): 12.8 µM
GI50 (SK-MEL-2 melanoma): 18.7 µM
TGI (SK-MEL-2 melanoma): 33.6 µM
GI50 (SK-MEL-28 melanoma): 6.24 µM
TGI (SK-MEL-28 melanoma): 19.5 µM
GI50 (SK-MEL-5 melanoma): 8.82 µM
TGI (SK-MEL-5 melanoma): 21 µM
GI50 (SK-OV-3 ovarian): 23.4 µM
TGI (SK-OV-3 ovarian): 59.2 µM
GI50 (SN12C renal): 14.2 µM
TGI (SN12C renal): 29.4 µM
GI50 (SNB-19 CNS): 22.1 µM
TGI (SNB-19 CNS): 47.1 µM
GI50 (SNB-75 CNS): 11.2 µM
TGI (SNB-75 CNS): 24.7 µM
GI50 (SR leukemia): 2.13 µM
TGI (SR leukemia): 6.3 µM
GI50 (SW-620 colon): 17.3 µM
TGI (SW-620 colon): 36.4 µM
GI50 (T-47D breast): 11.4 µM
TGI (T-47D breast): 37.9 µM
GI50 (TK-10 renal): 24.6 µM
TGI (TK-10 renal): 51.7 µM
GI50 (U251 CNS): 4.64 µM
TGI (U251 CNS): 19.9 µM
GI50 (UACC-257 melanoma): 3.61 µM
TGI (UACC-257 melanoma): 14.9 µM
GI50 (UACC-62 melanoma): 15.1 µM
TGI (UACC-62 melanoma): 28.6 µM
GI50 (UO-31 renal): 11.9 µM
TGI (UO-31 renal): 24.6 µM
